Test results: US20130158024A1, “TRICYCLIC NECROSTATIN COMPOUNDS” (priority 2005, published 2013)
“Also recorded” adds a separate entry of the source. Like-named read-outs stand apart in the source and are kept apart here.

Key:
U937 cells = assay: Oxidative stress (menadione) induced death of U937 cells, ATP assay; assay type: cell-based, human; settings: 250 μM menadione, 24 hours
Procedure: Viability of TNFα/zVAD/DMSO or manadione/DMSO blank treated cells is also shown (- - -). Viability was determined using ATP-Lite-M assay (Packard). Numbers represent percentages of live cells. The values were normalized relative to the zVAD or DMSO treated controls, which were set as 100% viability.
In this and subsequent panels, cell viability was determined via ATP assay. Numbers represent viability normalized to that of the DMSO-treated cells in the absence of TNFα and menadione. Throughout, error bars represent standard deviations. […] Representative images are shown. […] Protein lysates were subjected to western blotting with antibodies to LC3 and to tubulin. The ratio of LC3-II to tubulin signals was calculated (“Ratio”) and normalized to the value in the control sample. […] Alternatively, cells were treated with 2 μM rapamycin. […] Numbers represent viability normalized to that of the compound-treated cells in the absence of TNFα. In FIG. 28H, expression of beclin-1 (“Bec”) and tubulin (“Tub”) in the stable populations of cells in FIG. 28G was analyzed by western blotting.

FADD deficient JK cells = assay: MNNG-induced death of FADD deficient JK cells; assay type: cell-based, human; settings: 30 μM Nec-1, 5 hours
RAW264.7 cells = assay: LPS/zVAD.fmk-induced CICD of RAW264.7 macrophage cells, ATP assay; assay type: cell-based, mouse; settings: 10 ng/ml LPS, 50 or 100 μM zVAD.fmk, 30 μM Nec-1, 24 hours
Procedure: Cell viability was determined 24 hours later using an ATP assay. Values represent the percentages of live cells normalized to the control DMSO-treated cells.

[1] = test system: FADD-deficient Jurkat T cells treated with TNF-α; assay: Inhibition of necroptosis (CICD) in FADD-deficient Jurkat T cells treated with TNF-α, ATP-based viability; assay type: cell-based, human
[2] = test system: Primary mouse CD4+ and CD8+ T cells; assay: Activation-induced cell death (AICD) of primary CD4+ and CD8+ T cells; assay type: cell-based
Procedure: Cell viability was assessed using Sytox Green (Molecular Probes) (CD8) or propidium iodide exclusion (CD4) assays in FIG. 17A or ATP assay in FIG. 17B. Numbers represent the percentages of live cells normalized to the corresponding compound treated controls lacking αCD3.

[3] = test system: Jurkat cells expressing dimerizable FADD; settings: dimerizer and zVAD.fmk, 48 hours
BALB/c 3T3 cells = assay: CICD of BALB/c 3T3 cells induced by TNFα/zVAD.fmk; assay type: cell-based, mouse
[4] = test system: RIP kinase-induced necroptosis in FADD-deficient Jurkat cells; assay: Necroptosis induced by dimerized RIP kinase in FADD-deficient Jurkat cells, FACS; assay type: cell-based, human; settings: dimerizer AP1510, zVAD.fmk, 48 hours
Procedure: Percentage of PI-negative, GFP-positive cells (“Viability, %”) was determined by FACS. Numbers represent viability normalized to that of the compound-treated cells in the absence of dimerizer. Error bars represent standard deviations.

healthy cells = assay: Effect of compound alone on physiology of healthy cells (ATP, morphology, cell cycle, mRNA, ROS); assay type: cell-based
Procedure: Results of the forward and side scatter FACS analysis are shown. In addition, percentage of PI negative viable cells (±SD value) was determined in each sample. […] Numbers of PI negative viable cells (±SD value) in each sample are shown. […] FADD-deficient Jurkat cells were treated as described in FIG. 31A and cell cycle profiles were analyzed by PI DNA content FACS analysis. […] Cell viability was determined using ATP assay. Numbers represent viability normalized to that of the corresponding DMSO-treated cells. Error bars indicate standard deviation values. […] Cells were fixed, embedded and analyzed using electron microscopy. Representative images are shown. […] Cells were stained with dyhydroethydium (Molecular Probes) and analyzed by FACS. Percentages (±SD value) of cells with increased ROS levels are shown. […] Red dots are internal reference controls.
Cells were fixed and stained with anti-giantin (Golgi, green)/anti-KDEL (ER, red) antibodies (FIG. 32A), anti-β-tubulin (tubulin, green)/TO-PRO-3 dye (nuclei, blue)/phalloidin-TRITC (actin, red) (FIG. 32B) and anti-cytochrome c (mitochondria, red)/TO-PRO-3 (nuclei, blue) (FIG. 32C). […]
After the appropriate treatment, we washed Jurkat cells once, resuspended them in PBS, and fixed the cells by adding four volumes of ice cold 100% ethanol. […] We analyzed the data using ModFit software (Verity Software House).

L929 cells = assay: TNFα-induced CICD of L929 cells, ATP assay; assay type: cell-based, mouse; settings: no caspase inhibitor
Procedure: Cell viability was determined using ATP-Lite-M ATP assay (Packard). The values represent viability relative to the control lacking TNFα, which was set as 100% viability.
Cell viability in this and subsequent panels was determined by ATP-based viability assay. Numbers represent percentages of the live cells normalized to those in the untreated control wells. Throughout, error bars represent standard deviations. […] Numbers represent viability normalized to that of the corresponding compound-treated cells in the absence of FasL. […] Numbers represent viability normalized to that of the corresponding compound-treated cells in the absence of dimerizer. […] Cells were treated with TNFα (E, F, H), zVAD.fmk (E, F), or CHX (F) for 16 (F) or 24 (E, H) hours. Numbers represent viability normalized to that of the compound-treated cells in the absence of TNFα.

For methylthiohydantoin-tryptophane [Nec-1], the “protection from menadione induced cell death, in words” value (U937 cells) was “did not block the “classic” oxidative stress-induced necrosis caused by menadione”, the “protection from MNNG-induced death, in words” value (FADD deficient JK cells) was “failed to protect cells from DNA alkylating agent 1-methyl-3-nitro-1-nitrosoguanidine (MNNG)-induced death” and the “protection from LPS/zVAD.fmk toxicity, in words” value (RAW264.7 cells) was “protects from CICD induced by LPS in macrophage cells; also recorded: efficiently inhibited LPS-mediated sensitization of RAW264.7 cells to dose-dependent toxicity of zVAD.fmk”. The EC50 ([1]; 10 ng/mL human TNF-α, 24 hours, ATP-based viability, EC50 ± SD from at least two independent experiments, read-out: EC50 (μM) for inhibition of necroptosis) was 0.05 µM, the “antinecroptotic (anti-CICD) activity, in words” value ([1]; FADD-deficient Jurkat cells, TNFα) was “allowed proliferation of TNFα-treated FADD-deficient cells at a rate indistinguishable from untreated cells; also recorded: prevented the death of TNFα-treated FADD-deficient Jurkat cells” and the EC50 ([1]; Jurkat FADD deficient cells treated with TNFα, read-out: EC50) was 0.494 µM. For the same substance, the EC50 ([1]; concentration required to rescue 50% of cell death, TNFα for 36 hours, ATP assay, read-out: EC50) was 0.494 µM, the “effect on AICD together with zVAD.fmk, in words” value ([2]; 100 μM zVAD.fmk and 30 μM Nec-1, 48 hours) was “inhibition of AICD by Nec-1; also recorded: together efficiently abrogated cell death” and the “effect on AICD, compound alone, in words” value ([2]; re-activated CD4+ cells) was “displayed very little effect on the viability of re-activated T cells in the absence of zVAD.fmk”. The “inhibition of necrotic death, in words” value [3] was “inhibited all published examples of necrotic cell death induced by DR activation in the presence of caspase inhibitors”, the “inhibition of CICD in 3T3 cells, in words” value (BALB/c 3T3 cells) was “inhibited all published examples of necrotic cell death induced by DR activation in the presence of caspase inhibitors” and the “inhibition of RIP kinase-induced necroptosis, in words” value [4] was “inhibits RIP kinase-induced necroptosis; also recorded: inhibited by Nec-1”. The “general effect in healthy cells, in words” value (healthy cells) was “does not significantly affect gene expression in Jurkat cells; also recorded: had no general effect in healthy cells” and the “protection of L929 cells from TNFα-induced CICD, in words” value (L929 cells) was “protects L929 cells from CICD; also recorded: unlike Nec-1; also recorded: efficiently inhibited the TNFα-induced necrotic death of L929 cells”.
